Assay results from US20030199671A1, “Binding molecules for Fc-region polypeptides” (priority 2001, published 2003).
Values joined by “and” are separate entries in the source; they are usually repeats but may differ in a detail not shown here. Identical values can stand only once. Like-named read-outs stand apart in the source and are kept apart here. Positions of bridges follow the written chain, without caps; N, C: chain ends. Residues, ends and D or L forms follow the SMILES beside them.

Key:
Experiment in all cases: Fluorescence anisotropy binding, Oregon Green labeled peptide
human plasma IgG1 = target: T1, human plasma IgG1 (Homo sapiens, UniProt P01857)
T1 construct: the individual human plasma IgG isoforms: IgG1, IgG2, IgG3, or IgG4; purchased Calbiochem; host or cells: human plasma
T1 sequence (P01857 1-330 isoform P01857-1): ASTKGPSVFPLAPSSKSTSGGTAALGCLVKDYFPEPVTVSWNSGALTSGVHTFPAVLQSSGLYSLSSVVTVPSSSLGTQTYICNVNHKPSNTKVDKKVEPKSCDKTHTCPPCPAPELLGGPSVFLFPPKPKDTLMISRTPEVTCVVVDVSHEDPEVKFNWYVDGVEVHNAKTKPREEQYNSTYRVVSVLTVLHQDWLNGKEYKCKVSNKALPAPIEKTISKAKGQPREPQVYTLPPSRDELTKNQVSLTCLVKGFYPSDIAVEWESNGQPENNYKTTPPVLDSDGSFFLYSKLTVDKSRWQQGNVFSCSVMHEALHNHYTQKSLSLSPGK
Method: (§1) Peptides were synthesized by BACHEM and then Oregon Green labeled and HPLC purified. Binding studies were performed using human plasma IgG isoforms: IgG1, IgG2, IgG3, and IgG4, obtained from Calbiochem.
(§2) Binding studies were carried out at either pH 4.0, 7.5, or 9.5, with or without salt in the following buffers:
(§3) 2) 10 mM Sodium Citrate, 500 mM Sodium Chloride, 0.01% Tween 20, pH 4.0;
(§4) 4) […], 500 mM Sodium Chloride, 0.01% Tween 20, pH 7.5;
(§5) 5) 10 mM Sodium Bicarbonate, 0.01% Tween 20, pH 9.5;
(§6) 6) 10 mM Sodium Bicarbonate, 500 mM Sodium Chloride, 0.01% Tween 20, pH 9.5; or […]

human plasma IgG2 = target: T2, human plasma IgG2 (Homo sapiens, UniProt P01859)
T2 construct: the individual human plasma IgG isoforms: IgG1, IgG2, IgG3, or IgG4; purchased Calbiochem; host or cells: human plasma
T2 sequence (P01859 1-326 isoform P01859-1): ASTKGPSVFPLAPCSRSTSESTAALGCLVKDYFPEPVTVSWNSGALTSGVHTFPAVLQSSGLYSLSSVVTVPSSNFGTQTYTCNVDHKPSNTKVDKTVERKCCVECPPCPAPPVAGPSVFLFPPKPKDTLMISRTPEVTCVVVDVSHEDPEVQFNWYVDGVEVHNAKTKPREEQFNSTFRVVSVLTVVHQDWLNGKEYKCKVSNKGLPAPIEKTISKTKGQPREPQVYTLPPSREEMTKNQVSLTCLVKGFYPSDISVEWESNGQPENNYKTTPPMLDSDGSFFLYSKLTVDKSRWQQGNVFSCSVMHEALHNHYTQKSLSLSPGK
Method: as §1, §2, §3, §4, §5, §6

human plasma IgG3 = target: T3, human plasma IgG3 (Homo sapiens, UniProt P01860)
T3 construct: the individual human plasma IgG isoforms: IgG1, IgG2, IgG3, or IgG4; purchased Calbiochem; host or cells: human plasma
T3 sequence (P01860 1-377 isoform P01860-1): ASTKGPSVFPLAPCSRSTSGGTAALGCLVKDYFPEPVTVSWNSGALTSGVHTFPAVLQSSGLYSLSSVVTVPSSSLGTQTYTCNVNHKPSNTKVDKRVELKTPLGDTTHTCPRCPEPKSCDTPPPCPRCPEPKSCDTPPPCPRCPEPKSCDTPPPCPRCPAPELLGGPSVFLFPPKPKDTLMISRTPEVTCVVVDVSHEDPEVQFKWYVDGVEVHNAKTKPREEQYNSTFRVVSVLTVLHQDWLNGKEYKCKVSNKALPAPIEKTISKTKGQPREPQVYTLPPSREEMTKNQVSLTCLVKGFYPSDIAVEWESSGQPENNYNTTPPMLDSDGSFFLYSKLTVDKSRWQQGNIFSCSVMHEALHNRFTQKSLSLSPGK
Method: as §1, §2, §3, §4, §5, §6

human plasma IgG4 = target: T4, human plasma IgG4 (Homo sapiens, UniProt P01861)
T4 construct: the individual human plasma IgG isoforms: IgG1, IgG2, IgG3, or IgG4; purchased Calbiochem; host or cells: human plasma
T4 sequence (P01861 1-327 isoform P01861-1): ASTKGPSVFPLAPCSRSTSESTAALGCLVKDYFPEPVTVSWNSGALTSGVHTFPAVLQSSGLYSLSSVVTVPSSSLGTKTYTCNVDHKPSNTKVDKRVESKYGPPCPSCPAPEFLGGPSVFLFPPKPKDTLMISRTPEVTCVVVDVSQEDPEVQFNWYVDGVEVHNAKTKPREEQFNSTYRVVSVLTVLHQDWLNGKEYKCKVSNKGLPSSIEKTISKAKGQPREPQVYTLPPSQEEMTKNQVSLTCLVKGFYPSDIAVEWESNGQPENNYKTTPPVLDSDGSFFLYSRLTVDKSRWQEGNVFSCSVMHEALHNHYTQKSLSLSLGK
Method: as §1, §2, §3, §4, §5, §6

[1] = 10 nM Tris-HCl, 500 mM Sodium Chloride, pH 7.5, read-out: KD (μM) IgG1 pH 7.5 + salt
[2] = 10 mM Sodium Bicarbonate, 500 mM Sodium Chloride, pH 9.5, read-out: KD (μM) IgG1 pH 9.5 + salt
[3] = 10 mM Sodium Bicarbonate, pH 9.5, read-out: KD (μM) IgG1 pH 9.5 − salt
[4] = 10 mM Sodium Citrate, 500 mM Sodium Chloride, pH 4.0, read-out: KD (μM) IgG1 pH 4.0 + salt
[5] = 10 mM Sodium Citrate, pH 4.0, read-out: KD (μM) IgG1 pH 4.0 − salt
[6] = 10 mM Tris-HCl, pH 7.5, read-out: KD (μM) IgG1 pH 7.5 − salt
[7] = TBS, 0.01% Tween 20, pH 7.5, read-out: KD (μM) IgG1 TBS
[8] = 10 nM Tris-HCl, 500 mM Sodium Chloride, pH 7.5, read-out: KD (μM) IgG2 pH 7.5 + salt
[9] = 10 mM Sodium Bicarbonate, 500 mM Sodium Chloride, pH 9.5, read-out: KD (μM) IgG2 pH 9.5 + salt
[10] = 10 mM Sodium Bicarbonate, pH 9.5, read-out: KD (μM) IgG2 pH 9.5 − salt
[11] = 10 mM Sodium Citrate, 500 mM Sodium Chloride, pH 4.0, read-out: KD (μM) IgG2 pH 4.0 + salt
[12] = 10 mM Sodium Citrate, pH 4.0, read-out: KD (μM) IgG2 pH 4.0 − salt
[13] = 10 mM Tris-HCl, pH 7.5, read-out: KD (μM) IgG2 pH 7.5 − salt
[14] = TBS, 0.01% Tween 20, pH 7.5, read-out: KD (μM) IgG2 TBS
[15] = 10 nM Tris-HCl, 500 mM Sodium Chloride, pH 7.5, read-out: KD (μM) IgG3 pH 7.5 + salt
[16] = 10 mM Sodium Bicarbonate, 500 mM Sodium Chloride, pH 9.5, read-out: KD (μM) IgG3 pH 9.5 + salt
[17] = 10 mM Sodium Bicarbonate, pH 9.5, read-out: KD (μM) IgG3 pH 9.5 − salt
[18] = 10 mM Sodium Citrate, 500 mM Sodium Chloride, pH 4.0, read-out: KD (μM) IgG3 pH 4.0 + salt
[19] = 10 mM Sodium Citrate, pH 4.0, read-out: KD (μM) IgG3 pH 4.0 − salt
[20] = 10 mM Tris-HCl, pH 7.5, read-out: KD (μM) IgG3 pH 7.5 − salt
[21] = TBS, 0.01% Tween 20, pH 7.5, read-out: KD (μM) IgG3 TBS
[22] = 10 nM Tris-HCl, 500 mM Sodium Chloride, pH 7.5, read-out: KD (μM) IgG4 pH 7.5 + salt
[23] = 10 mM Sodium Bicarbonate, 500 mM Sodium Chloride, pH 9.5, read-out: KD (μM) IgG4 pH 9.5 + salt
[24] = 10 mM Sodium Bicarbonate, pH 9.5, read-out: KD (μM) IgG4 pH 9.5 − salt
[25] = 10 mM Sodium Citrate, 500 mM Sodium Chloride, pH 4.0, read-out: KD (μM) IgG4 pH 4.0 + salt
[26] = 10 mM Sodium Citrate, pH 4.0, read-out: KD (μM) IgG4 pH 4.0 − salt
[27] = 10 mM Tris-HCl, pH 7.5, read-out: KD (μM) IgG4 pH 7.5 − salt
[28] = TBS, 0.01% Tween 20, pH 7.5, read-out: KD (μM) IgG4 TBS

Structure (SMILES)	Kd (human plasma IgG1; [1])	Kd (human plasma IgG1; [2])	Kd (human plasma IgG1; [3])	Kd (human plasma IgG1; [4])	Kd (human plasma IgG1; [5])	Kd (human plasma IgG1; [7])	Kd (human plasma IgG2; [8])	Kd (human plasma IgG2; [9])	Kd (human plasma IgG2; [10])	Kd (human plasma IgG2; [11])	Kd (human plasma IgG2; [12])	Kd (human plasma IgG2; [13])	Kd (human plasma IgG2; [14])	Kd (human plasma IgG3; [16])	Kd (human plasma IgG3; [17])	Kd (human plasma IgG3; [18])	Kd (human plasma IgG3; [19])	Kd (human plasma IgG3; [20])	Kd (human plasma IgG3; [21])	Kd (human plasma IgG4; [22])	other results
CC(=O)N[C@@H](C)C(=O)NCC(=O)N1CCC[C@H]1C(=O)N[C@@H](Cc1c[nH]cn1)C(=O)N[C@@H](CC(N)=O)C(=O)N[C@H]1CSSC[C@@H](C(=O)N[C@@H](CCCCN)C(=O)N[C@@H](Cc2c[nH]c3ccccc23)C(=O)N[C@@H](Cc2ccccc2)C(=O)N2CCC[C@H]2C(=O)NCC(=O)N2CCC[C@H]2C(=O)N[C@@H](CCC(=O)O)C(=O)NCC(=O)NCC(=O)NCC(=O)N[C@@H](CCCCN)C(N)=O)NC(=O)[C@H](Cc2ccc(O)cc2)NC(=O)[C@H](Cc2c[nH]c3ccccc23)NC(=O)[C@H](Cc2ccc(O)cc2)NC(=O)[C@H](Cc2c[nH]cn2)NC(=O)[C@H](CC(=O)O)NC(=O)[C@H](CC(=O)O)NC1=O [DX389] (Ac-AGPHNCDDHYWYCKWFPGPEGGGK-NH2; disulfide 6-13 (inferred))	> 10 µM	> 10 µM	> 10 µM	> 10 µM	> 10 µM	> 10 µM	> 10 µM	> 10 µM	> 10 µM	> 10 µM	> 10 µM	> 10 µM	> 10 µM	> 10 µM	> 10 µM	~2 µM	~2 µM	> 10 µM	> 10 µM	> 10 µM	Kd (human plasma IgG1; [6]): > 10 µM; Kd (human plasma IgG3; [15]): > 10 µM; Kd (human plasma IgG4; [23]): > 10 µM; Kd (human plasma IgG4; [24]): > 10 µM; Kd (human plasma IgG4; [25]): > 10 µM; Kd (human plasma IgG4; [26]): > 10 µM; Kd (human plasma IgG4; [27]): > 10 µM; Kd (human plasma IgG4; [28]): > 10 µM
CC[C@H](C)[C@@H]1NC(=O)[C@H](CCCCN)NC(=O)[C@@H](NC(=O)[C@H](Cc2c[nH]c3ccccc23)NC(=O)[C@H](Cc2ccc(O)cc2)NC(=O)[C@H](CO)NC(=O)CNC(=O)[C@H](C)NC(C)=O)CSSC[C@@H](C(=O)N2CCC[C@H]2C(=O)N[C@@H](CCC(N)=O)C(=O)N[C@@H](CO)C(=O)N2CCC[C@H]2C(=O)NCC(=O)N2CCC[C@H]2C(=O)N[C@@H](CCC(=O)O)C(=O)NCC(=O)NCC(=O)NCC(=O)N[C@@H](CCCCN)C(N)=O)NC(=O)[C@H](C(C)C)NC(=O)[C@H](CC(=O)O)NC(=O)[C@H](Cc2c[nH]c3ccccc23)NC1=O [DX392] (Ac-AGSYWCKIWDVCPQSPGPEGGGK-NH2; disulfide 6-12 (inferred))	> 10 µM	> 10 µM	> 10 µM	> 10 µM	> 10 µM	> 10 µM	> 10 µM	> 10 µM	> 10 µM	> 10 µM	> 10 µM	> 10 µM	> 10 µM	> 10 µM	> 10 µM	0.3 to 0.6 µM	0.3 to 0.6 µM	> 10 µM	> 10 µM	> 10 µM	Kd (human plasma IgG1; [6]): > 10 µM; Kd (human plasma IgG3; [15]): > 10 µM; Kd (human plasma IgG4; [23]): > 10 µM; Kd (human plasma IgG4; [24]): > 10 µM; Kd (human plasma IgG4; [25]): > 10 µM; Kd (human plasma IgG4; [26]): > 10 µM; Kd (human plasma IgG4; [27]): > 10 µM; Kd (human plasma IgG4; [28]): > 10 µM
CC(=O)N[C@@H](C)C(=O)NCC(=O)N[C@@H](CCCCN)C(=O)N[C@@H](Cc1ccc(O)cc1)C(=O)N[C@@H](Cc1c[nH]c2ccccc12)C(=O)N[C@H]1CSSC[C@@H](C(=O)N2CCC[C@H]2C(=O)N[C@@H](C)C(=O)N[C@@H](CC(N)=O)C(=O)N2CCC[C@H]2C(=O)NCC(=O)N2CCC[C@H]2C(=O)N[C@@H](CCC(=O)O)C(=O)NCC(=O)NCC(=O)NCC(=O)N[C@@H](CCCCN)C(N)=O)NC(=O)[C@H](C(C)C)NC(=O)CNC(=O)[C@H](Cc2c[nH]c3ccccc23)NC(=O)[C@H](CC(C)C)NC(=O)[C@H](CC(N)=O)NC1=O [DX395]	> 10 µM	> 10 µM	> 10 µM	> 10 µM	> 10 µM	> 10 µM	> 10 µM	> 10 µM	> 10 µM	> 10 µM	> 10 µM	> 10 µM	> 10 µM	> 10 µM	> 10 µM	1 to 2 µM	1 ± 0.26 µM	> 10 µM	> 10 µM	> 10 µM	Kd (human plasma IgG1; [6]): > 10 µM; Kd (human plasma IgG4; [23]): > 10 µM; Kd (human plasma IgG4; [24]): > 10 µM; Kd (human plasma IgG4; [25]): > 10 µM; Kd (human plasma IgG4; [26]): > 10 µM; Kd (human plasma IgG4; [27]): > 10 µM; Kd (human plasma IgG4; [28]): > 10 µM
CC(=O)N[C@@H](C)C(=O)NCC(=O)N[C@@H](C)C(=O)N[C@@H](C)C(=O)N[C@H](C(=O)N[C@H]1CSSC[C@@H](C(=O)N[C@H](C(=O)N[C@@H](CC(=O)O)C(=O)N[C@@H](CO)C(=O)N2CCC[C@H]2C(=O)NCC(=O)N2CCC[C@H]2C(=O)N[C@@H](CCC(=O)O)C(=O)NCC(=O)NCC(=O)NCC(=O)N[C@@H](CCCCN)C(N)=O)[C@@H](C)O)NC(=O)[C@H](Cc2ccccc2)NC(=O)[C@H](Cc2c[nH]c3ccccc23)NC(=O)[C@H](CCC(N)=O)NC(=O)[C@H](Cc2ccc(O)cc2)NC(=O)[C@H](Cc2ccc(O)cc2)NC(=O)[C@H](Cc2c[nH]c3ccccc23)NC(=O)[C@H](Cc2ccc(O)cc2)NC(=O)[C@H](CO)NC(=O)[C@H]([C@@H](C)O)NC(=O)[C@H](CO)NC1=O)[C@@H](C)O [DX398]	> 10 µM	> 10 µM	> 10 µM	> 10 µM	~2 µM	> 10 µM	> 10 µM	> 10 µM	> 10 µM	> 10 µM	~2 µM	> 10 µM	> 10 µM	0.3 ± 0.1 µM	> 10 µM	0.04 to 0.3 µM	~0.02 µM and 0.02 µM	> 10 µM	> 10 µM	> 10 µM	Kd (human plasma IgG3; [15]): 0.3 ± 0.03 µM; Kd (human plasma IgG4; [23]): > 10 µM; Kd (human plasma IgG4; [24]): > 10 µM; Kd (human plasma IgG4; [25]): > 10 µM; Kd (human plasma IgG4; [26]): ~2 µM; Kd (human plasma IgG4; [28]): > 10 µM
